In patent US8288421B2, “Phenylaminopyridines” (Basilea Pharmaceutica AG, priority 2004, dated 2012):

Tests used:
DOHH2 = assay: Mitochondrial membrane potential (JC-1); assay type: cell-based; conditions: DOHH2, 48 h read-out
Procedure: (§1) This assay is performed in 96 well tissue culture plates. Appropriate number of cells (adherent cells: 3-5*10^3, suspension cells: 8-10*10^3) are being seeded out in 80 μl complete medium. Adherent cells are incubated for 24 h for proper spreading out before addition of test compounds while suspension cells are immediately treated with test compounds after seeding out. The test compounds are added in 20 μal complete medium containing max 5% DMSO. […] The assay plates are then further incubated for 30 minutes and subsequently analyzed with a standard inverted fluorescence microscope by using the FITC and TRITC filters.
(§2) The scores A, B, C and D are explained at the end of the Table.

Jily [1] = assay: MTS proliferation assay; assay type: cell-based; conditions: 72 h read-out
Procedure: (§3) The assay is performed in 96 well tissue culture plates. The cells (range: 1.5*10^3-10^4) are seeded out in 80 μl complete medium 24 h prior to compound treatment. The test compounds are added in 20 μl complete medium containing max 5% DMSO. The final compound concentrations in the assays are in the range of 0.001 μM-10 μM. The assay plates are incubated for 72 h at culture conditions. The MTS reagent is prepared according to the manufacturer's protocol (Promega G1111). 20 μl MTS reagent are added to each well, the assay plates are quickly spun and incubated for another 3 h at culture conditions. Subsequently, the plates are shortly shaked and absorption measured with a microplate-reader at 492 nm. The scores A, B, C and D are explained at the end of the Table.

MRC5 [2] = assay: MTS proliferation assay; assay type: cell-based; conditions: MRC5, 72 h read-out
Procedure: as §3

HeLa [3] = assay: MTS proliferation assay; assay type: cell-based, human; conditions: 72 h read-out
Procedure: as §3

Jurkat [4] = assay: MTS proliferation assay; assay type: cell-based, human; conditions: 72 h read-out
Procedure: as §3

HT1080 = assay: MTS proliferation assay; assay type: cell-based, human; conditions: HT1080, 72 h read-out
Procedure: as §3

Jily [5] = assay: Hoechst 33342 nuclear staining; assay type: cell-based; conditions: 48 h read-out
Procedure: as §1, with “μl” for “μal”, “DMSO. The final compound concentrations in the assays are in the range of 0.001 μM-10 μM.” for “DMSO.”, “microscope.” for “microscope by using the FITC and TRITC filters.”
(§4) The readout allows the determination of the fraction of apoptotic nuclei as well as other morphological criteria specific for apoptosis as a function of the treatment. The scores A, B, C and D are explained at the end of the Table.

MRC5 [6] = assay: Hoechst 33342 nuclear staining; assay type: cell-based; conditions: MRC5, 48 h read-out
Procedure: as §1, with “μl” for “μal”, “DMSO. The final compound concentrations in the assays are in the range of 0.001 μM-10 μM.” for “DMSO.”, “microscope.” for “microscope by using the FITC and TRITC filters.”
as §4

HeLa [7] = assay: Hoechst 33342 nuclear staining; assay type: cell-based, human; conditions: 48 h read-out
Procedure: as §1, with “μl” for “μal”, “DMSO. The final compound concentrations in the assays are in the range of 0.001 μM-10 μM.” for “DMSO.”, “microscope.” for “microscope by using the FITC and TRITC filters.”
as §4

Jurkat [8] = assay: Hoechst 33342 nuclear staining; assay type: cell-based, human; conditions: 48 h read-out
Procedure: as §1, with “μl” for “μal”, “DMSO. The final compound concentrations in the assays are in the range of 0.001 μM-10 μM.” for “DMSO.”, “microscope.” for “microscope by using the FITC and TRITC filters.”
as §4

PBL [9] = assay: Hoechst 33342 nuclear staining; assay type: cell-based, human; conditions: 48 h read-out
Procedure: as §1, with “μl” for “μal”, “DMSO. The final compound concentrations in the assays are in the range of 0.001 μM-10 μM.” for “DMSO.”, “microscope.” for “microscope by using the FITC and TRITC filters.”
as §4

HeLa [10] = assay: Mitochondrial membrane potential (JC-1); assay type: cell-based, human; conditions: 48 h read-out
Procedure: as §1, §2

Jurkat [11] = assay: Mitochondrial membrane potential (JC-1); assay type: cell-based, human; conditions: 48 h read-out
Procedure: as §1, §2

MCF7 = assay: Mitochondrial membrane potential (JC-1); assay type: cell-based, human; conditions: MCF7, 48 h read-out
Procedure: as §1, §2

PBL [12] = assay: Mitochondrial membrane potential (JC-1); assay type: cell-based, human; conditions: 48 h read-out
Procedure: as §1, §2

| EC50 (DOHH2) [nM] | IC50 (HeLa [3]) [nM] | IC50 (Jurkat [4]) [nM] | IC50 (HT1080) [nM] | EC50 (Jily [5]) [nM] | EC50 (HeLa [7]) [nM] | EC50 (Jurkat [8]) [nM] | EC50 (PBL [9]) [nM] | EC50 (HeLa [10]) [nM] | EC50 (Jurkat [11]) [nM] | EC50 (MCF7) [nM] | EC50 (PBL [12]) [nM] | Structure (SMILES) | IC50 (Jily [1]) [nM] | IC50 (MRC5 [2]) [nM] | EC50 (MRC5 [6]) [nM] |
| --- | --- | --- | --- | --- | --- | --- | --- | --- | --- | --- | --- | --- | --- | --- | --- |
| 10 to 100 | 100 to 1000 | 10 to 100 | 100 to 1000 | 10 to 100 | 100 to 1000 | 10 to 100 | > 1000 | 100 to 1000 | 10 to 100 | > 1000 | > 1000 | COc1ccc(Nc2cncc(-c3cccc(NC(=O)c4ccco4)c3)c2)cc1 [Example 14] | 10 to 100 | 100 to 1000 | 100 to 1000 |
| > 1000 | > 1000 | 100 to 1000 | > 1000 | > 1000 | > 1000 | 100 to 1000 | > 1000 | > 1000 | 100 to 1000 | > 1000 | > 1000 | COc1ccc(Nc2cncc(-c3cccc(NC(=O)c4cccc(OC)c4)c3)c2)cc1 [Example 25] | 100 to 1000 | > 1000 | > 1000 |
| 10 to 100 | 10 to 100 | < 10 | 10 to 100 | 10 to 100 | 10 to 100 | 100 to 1000 | > 1000 | 10 to 100 | 10 to 100 | > 1000 | > 1000 | COc1ccc(Nc2cncc(-c3cccc(NC(=O)c4ccccn4)c3)c2)cc1 [Example 17] | 10 to 100 | 10 to 100 | > 1000 |
| > 1000 | > 1000 | 100 to 1000 | > 1000 | 100 to 1000 | > 1000 | 100 to 1000 | > 1000 | > 1000 | > 1000 | > 1000 | > 1000 | COc1ccc(Nc2cncc(-c3cccc(NC(=O)c4ccccc4)c3)c2)c(OC)c1 [Example 30] | 100 to 1000 | > 1000 | > 1000 |
| 100 to 1000 |  |  |  | 100 to 1000 | 100 to 1000 | 100 to 1000 | 100 to 1000 | 100 to 1000 | 100 to 1000 | 100 to 1000 | 100 to 1000 | COCC(=O)Nc1cccc(-c2cncc(Nc3ccc(OC)cc3)c2)c1 [Example 41] |  |  | > 1000 |

Continued, compound first:

| Structure (SMILES) | EC50 (DOHH2) [nM] | IC50 (HeLa [3]) [nM] | IC50 (Jurkat [4]) [nM] | IC50 (HT1080) [nM] | EC50 (Jily [5]) [nM] | EC50 (HeLa [7]) [nM] | EC50 (Jurkat [8]) [nM] | EC50 (PBL [9]) [nM] | EC50 (HeLa [10]) [nM] | EC50 (Jurkat [11]) [nM] | EC50 (MCF7) [nM] | EC50 (PBL [12]) [nM] | IC50 (Jily [1]) [nM] | IC50 (MRC5 [2]) [nM] | EC50 (MRC5 [6]) [nM] |
| --- | --- | --- | --- | --- | --- | --- | --- | --- | --- | --- | --- | --- | --- | --- | --- |
| O=C(Nc1cccc(-c2cncc(Nc3ccc(OCc4ccccc4)cc3)c2)c1)c1ccccc1 [Example 27] | > 1000 | > 1000 | > 1000 | > 1000 | > 1000 | > 1000 | > 1000 | > 1000 | > 1000 | > 1000 | > 1000 | > 1000 | > 1000 | > 1000 | > 1000 |
| COc1ccc(Nc2cncc(-c3cccc(NC(=O)C(C)C)c3)c2)cc1 [Example 26] | 100 to 1000 | 100 to 1000 | 10 to 100 | 100 to 1000 | 100 to 1000 | 100 to 1000 | 10 to 100 | > 1000 | > 1000 | 100 to 1000 | > 1000 | > 1000 | 10 to 100 | 100 to 1000 | > 1000 |
| COc1ccc(Nc2cncc(-c3cccc(NC(=O)c4cnccn4)c3)c2)cc1 [Example 12] | 10 to 100 | 10 to 100 | < 10 | 10 to 100 | 10 to 100 | 10 to 100 | 10 to 100 | > 1000 | 100 to 1000 | 10 to 100 | 100 to 1000 | > 1000 | 10 to 100 | 100 to 1000 | 100 to 1000 |
| COc1ccc(Nc2cncc(-c3cccc(NS(=O)(=O)c4ccccc4)c3)c2)cc1 [Example 23] | 100 to 1000 | 100 to 1000 | 100 to 1000 | 100 to 1000 | 100 to 1000 | 100 to 1000 | 100 to 1000 | > 1000 | 100 to 1000 | 100 to 1000 | 100 to 1000 | > 1000 | 100 to 1000 | 100 to 1000 | > 1000 |
